Measurements reported in US20240239755A1, “SUBSTITUTED PYRIDAZINONES, SALTS OR N-OXIDES THEREOF AND THEIR USE AS HERBICIDALLY ACTIVE SUBSTANCES” (Bayer Aktiengesellschaft, priority 2021, published 2024).

How the values were obtained:
Format in all cases: in vivo
Stellaria media (STEME) [1] = experiment: Herbicidal pre-emergence action, 320 g/ha, STEME; conditions: visual grading after ca. 3 weeks
Description: (§1) Seeds of mono- and dicotyledonous weed plants were sown in plastic pots (double sowings with one species of mono- and one species of dicotyledonous weed plants per pot), in sandy loam, and covered with soil. The compounds according to the invention, formulated in the form of wettable powders (WP) or as emulsifiable concentrates (EC), were applied to the surface of the covering soil as an aqueous suspension or as an emulsion, with the addition of 0.5% of an additive, at an application rate of 600 litres of water per hectare (converted). Following treatment, the pots were placed in a greenhouse and kept under optimum growth conditions for the test plants. The visual grading of the damage to the test plants was carried out after ca. 3 weeks in comparison to untreated controls (herbicidal effect in percent (%): 100% effect=plants have died, 0% effect=as control plants).
Tables C1 to C6 below, show the effects of selected compounds of the general formula (I) according to Table 1 on various harmful plants using an application rate corresponding to 320 g/ha obtained by the experimental procedure mentioned above.

Veronica persica (VERPE) [2] = experiment: Herbicidal post-emergence action, 320 g/ha, VERPE; conditions: visual grading after ca. 3 weeks
Description: (§2) Seeds of mono- and dicotyledonous weed plants were sown in plastic pots (double sowings with one species of mono- and one species of dicotyledonous weed plants per pot), in sandy loam, covered with soil and grown under controlled growth conditions. 2 to 3 weeks after sowing, the test plants were sprayed in the single-leaf stage. The compounds according to the invention, formulated in the form of wettable powders (WP) or as emulsifiable concentrates (EC), were sprayed onto the green plant parts as an aqueous suspension or as an emulsion, with the addition of 0.5% of an additive, at an application rate of 600 litres of water per hectare (converted). The test plants were placed in the greenhouse for ca. 3 weeks under optimum growth conditions, and then the effect of the preparations was assessed visually in comparison with untreated controls (herbicidal effect in percent (%): 100% effect=plants have died, 0% effect=as control plants).
(§3) Tables D1 to D8 below, show the effects of selected compounds of the general formula (I) according to Table 1 on various harmful plants using an application rate corresponding to 320 g/ha obtained by the experimental procedure mentioned above.

[3] = system: Matricaria inodora (MATIN); experiment: Herbicidal post-emergence action, 320 g/ha, MATIN; conditions: visual grading after ca. 3 weeks
Description: as §2, §3

[4] = system: Amaranthus retroflexus (AMARE); experiment: Herbicidal pre-emergence action, 1280 g/ha (Table A11); conditions: visual grading after ca. 3 weeks vs untreated controls
Description: as §1, with “plants). Tables A1 to A11 below, show the effects of selected compounds of the general formula (I) according to Table 1 on various harmful plants and an application rate corresponding to 1280 g/ha obtained by the experimental procedure mentioned above.” for “plants).”

Stellaria media (STEME) [5] = experiment: Herbicidal post-emergence action, 1280 g/ha (Table B9); conditions: visual assessment after ca. 3 weeks vs untreated controls
Description: as §2, with “plants). Tables B1 to B11 below, show the effects of selected compounds of the general formula (I) according to Table 1 on various harmful plants using an application rate corresponding to 1280 g/ha obtained by the experimental procedure mentioned above.” for “plants).”

[6] = system: Amaranthus retroflexus (AMARE); experiment: Herbicidal post-emergence action, 320 g/ha, AMARE; conditions: visual grading after ca. 3 weeks
Description: as §2, §3

Stellaria media (STEME) [7] = experiment: Herbicidal post-emergence action, 320 g/ha, STEME; conditions: visual grading after ca. 3 weeks
Description: as §2, §3

[8] = system: Amaranthus retroflexus (AMARE); experiment: Herbicidal post-emergence action, 1280 g/ha, AMARE; conditions: visual grading vs untreated controls
Description: as §2
(§4) Tables B1 to B11 below, show the effects of selected compounds of the general formula (I) according to Table 1 on various harmful plants using an application rate corresponding to 1280 g/ha obtained by the experimental procedure mentioned above.

Lolium rigidum (LOLRI) [9] = experiment: Herbicidal post-emergence action, 1280 g/ha (Table B5); conditions: visual assessment after ca. 3 weeks vs untreated controls
Description: as §2, with “plants). Tables B1 to B11 below, show the effects of selected compounds of the general formula (I) according to Table 1 on various harmful plants using an application rate corresponding to 1280 g/ha obtained by the experimental procedure mentioned above.” for “plants).”

Kochia scoparia (KCHSC) [10] = experiment: Herbicidal post-emergence action, 1280 g/ha (Table B4); conditions: visual assessment after ca. 3 weeks vs untreated controls
Description: as §2, with “plants). Tables B1 to B11 below, show the effects of selected compounds of the general formula (I) according to Table 1 on various harmful plants using an application rate corresponding to 1280 g/ha obtained by the experimental procedure mentioned above.” for “plants).”

Stellaria media (STEME) [11] = experiment: Herbicidal pre-emergence action, 1280 g/ha (Table A9); conditions: visual grading after ca. 3 weeks vs untreated controls
Description: as §1, with “plants). Tables A1 to A11 below, show the effects of selected compounds of the general formula (I) according to Table 1 on various harmful plants and an application rate corresponding to 1280 g/ha obtained by the experimental procedure mentioned above.” for “plants).”

[12] = system: Matricaria inodora (MATIN); experiment: Herbicidal pre-emergence action, 1280 g/ha (Table A6); conditions: visual grading after ca. 3 weeks vs untreated controls
Description: as §1, with “plants). Tables A1 to A11 below, show the effects of selected compounds of the general formula (I) according to Table 1 on various harmful plants and an application rate corresponding to 1280 g/ha obtained by the experimental procedure mentioned above.” for “plants).”

Lolium rigidum (LOLRI) [13] = experiment: Herbicidal pre-emergence action, 320 g/ha (Table C2); conditions: visual grading after ca. 3 weeks vs untreated controls
Description: as §1, with “plants). Tables C1 to C6 below, show the effects of selected compounds of the general formula (I) according to Table 1 on various harmful plants using an application rate corresponding to 320 g/ha obtained by the experimental procedure mentioned above.” for “plants).”

[14] = system: Abutilon theophrasti (ABUTH); experiment: Herbicidal post-emergence action, 320 g/ha, ABUTH; conditions: visual grading after ca. 3 weeks
Description: as §2, §3

[15] = system: Abutilon theophrasti (ABUTH); experiment: Herbicidal pre-emergence action, 1280 g/ha (Table A1); conditions: visual grading after ca. 3 weeks vs untreated controls
Description: as §1, with “plants). Tables A1 to A11 below, show the effects of selected compounds of the general formula (I) according to Table 1 on various harmful plants and an application rate corresponding to 1280 g/ha obtained by the experimental procedure mentioned above.” for “plants).”

[16] = system: Matricaria inodora (MATIN); experiment: Herbicidal post-emergence action, 1280 g/ha (Table B6); conditions: visual assessment after ca. 3 weeks vs untreated controls
Description: as §2, with “plants). Tables B1 to B11 below, show the effects of selected compounds of the general formula (I) according to Table 1 on various harmful plants using an application rate corresponding to 1280 g/ha obtained by the experimental procedure mentioned above.” for “plants).”

Veronica persica (VERPE) [17] = experiment: Herbicidal post-emergence action, 1280 g/ha, VERPE; conditions: visual grading vs untreated controls
Description: as §2, §4

Lolium rigidum (LOLRI) [18] = experiment: Herbicidal pre-emergence action, 1280 g/ha (Table A5); conditions: visual grading after ca. 3 weeks vs untreated controls
Description: as §1, with “plants). Tables A1 to A11 below, show the effects of selected compounds of the general formula (I) according to Table 1 on various harmful plants and an application rate corresponding to 1280 g/ha obtained by the experimental procedure mentioned above.” for “plants).”

[19] = system: Abutilon theophrasti (ABUTH); experiment: Herbicidal post-emergence action, 1280 g/ha (Table B1); conditions: visual assessment after ca. 3 weeks vs untreated controls
Description: as §2, with “plants). Tables B1 to B11 below, show the effects of selected compounds of the general formula (I) according to Table 1 on various harmful plants using an application rate corresponding to 1280 g/ha obtained by the experimental procedure mentioned above.” for “plants).”

Kochia scoparia (KCHSC) [20] = experiment: Herbicidal pre-emergence action, 1280 g/ha (Table A4); conditions: visual grading after ca. 3 weeks vs untreated controls
Description: as §1, with “plants). Tables A1 to A11 below, show the effects of selected compounds of the general formula (I) according to Table 1 on various harmful plants and an application rate corresponding to 1280 g/ha obtained by the experimental procedure mentioned above.” for “plants).”

Kochia scoparia (KCHSC) [21] = experiment: Herbicidal post-emergence action, 320 g/ha, KCHSC; conditions: visual grading after ca. 3 weeks
Description: as §2, §3

Poa annua (POAAN) = experiment: Herbicidal pre-emergence action, 1280 g/ha (Table A7); conditions: visual grading after ca. 3 weeks vs untreated controls
Description: as §1, with “plants). Tables A1 to A11 below, show the effects of selected compounds of the general formula (I) according to Table 1 on various harmful plants and an application rate corresponding to 1280 g/ha obtained by the experimental procedure mentioned above.” for “plants).”

SMILES	herbicidal effect VERPE (Veronica persica (VERPE) [2]) [%]	herbicidal effect MATIN [3] [%]	herbicidal effect STEME (Stellaria media (STEME) [5]) [%]	herbicidal effect AMARE [6] [%]	herbicidal effect STEME (Stellaria media (STEME) [7]) [%]	herbicidal effect AMARE [8] [%]	herbicidal effect LOLRI (Lolium rigidum (LOLRI) [9]) [%]	herbicidal effect KCHSC (Kochia scoparia (KCHSC) [10]) [%]	herbicidal effect STEME (Stellaria media (STEME) [11]) [%]	herbicidal effect MATIN [12] [%]	herbicidal effect ABUTH [14] [%]	herbicidal effect MATIN [16] [%]	herbicidal effect VERPE (Veronica persica (VERPE) [17]) [%]	herbicidal effect LOLRI (Lolium rigidum (LOLRI) [18]) [%]	herbicidal effect ABUTH [19] [%]	also measured
Cc1nn(C)c(=O)c(Oc2cc(F)ccc2C2CC2)c1O [Example I-046]	90	90	100	90	90	100	100	90	100	90	100	100	100	100	100	herbicidal effect STEME (Stellaria media (STEME) [1]): 100%; herbicidal effect AMARE [4]: 90%; herbicidal effect LOLRI (Lolium rigidum (LOLRI) [13]): 90%; herbicidal effect ABUTH [15]: 90%
CCOC(=O)Oc1c(C)nn(C)c(=O)c1Oc1ccccc1OC(F)(F)F [Example I-013]	90	90	100	90	100	90	100	100	100	100	–	100	100	100	100	herbicidal effect KCHSC (Kochia scoparia (KCHSC) [20]): 90%; herbicidal effect AMARE [4]: 90%; herbicidal effect KCHSC (Kochia scoparia (KCHSC) [21]): 100%
Cc1nn(C)c(=O)c(Oc2ccccc2C(F)(F)F)c1O [Example I-007, 5-hydroxy-2,6-dimethyl-4-[2-(trifluoromethyl)phenoxy]pyridazin-3-one]	–	–	100	90	–	90	90	100	100	–	–	90	90	90	–	herbicidal effect POAAN (Poa annua (POAAN)): 100%
Cc1ccccc1Oc1c(O)c(C)nn(C)c1=O [Example I-017]	90	–	–	90	–	90	–	100	–	–	90	–	90	–	90	–
Cc1nn(C)c(=O)c(Oc2ccccc2F)c1O [Example I-021]	–	–	–	–	–	–	–	–	–	–	–	–	–	–	–	herbicidal effect POAAN (Poa annua (POAAN)): 90%
CCOC(=O)Oc1c(C)nn(C)c(=O)c1Oc1cc(Cl)ccc1C1CC1 [Example I-070]	–	–	100	90	90	100	100	–	90	100	100	90	90	100	100	herbicidal effect STEME (Stellaria media (STEME) [1]): 90%; herbicidal effect ABUTH [15]: 100%
Cc1nn(C)c(=O)c(Oc2cc(F)c(F)cc2Br)c1O [Example I-087]	90	90	–	90	–	100	–	100	–	–	–	100	90	90	100	herbicidal effect KCHSC (Kochia scoparia (KCHSC) [21]): 90%
